Measurements taken from ChEMBL document CHEMBL3867479, “Multiple biological activities and molecular docking studies of newly synthesized 3-(pyridin-4-yl)-1H-pyrazole-5-carboxamide chalcone hybrids” (Bioorg Med Chem Lett, 2016).
Calls of active or inactive are those of the source. No cut-off for these calls is given here.

Columns and labels:
Pseudomonas aeruginosa = experiment: Antibacterial activity against Pseudomonas aeruginosa ATCC 10145 after 24 hrs by well diffusion method; format: functional
Streptococcus pyogenes = experiment: Antibacterial activity against Streptococcus pyogenes ATCC 12358 after 24 hrs by well diffusion method; format: functional
Staphylococcus aureus = experiment: Antibacterial activity against Staphylococcus aureus ATCC 11632 after 24 hrs by well diffusion method; format: functional
[1] = Antioxidant activity assessed as DPPH free radical scavenging activity at 100 uM by UV-Vis spectrophotometric analysis; format: functional
[2] = Antioxidant activity assessed as H2O2 free radical scavenging activity at 100 uM by UV-Vis spectrophotometric analysis; format: functional
Erythrocyte = experiment: Antiinflammatory activity in human RBC at 10 to 500 uM by membrane stabilization method; format: functional, cell-based
[3] = Antioxidant activity assessed as anti-inflammatory activity by measuring decrease in bovine serum albumin denaturation at 10 to 500 uM; format: functional
Klebsiella pneumoniae = experiment: Antibacterial activity against Klebsiella pneumoniae ATCC 10031 after 24 hrs by well diffusion method; format: functional

IC50 [1] [µM]	IC50 [2] [µM]	Compound	inhibition zone (IZ) (Pseudomonas aeruginosa) [mm]	inhibition zone (IZ) (Streptococcus pyogenes) [mm]	inhibition zone (IZ) (Staphylococcus aureus) [mm]	Activity (Erythrocyte)	Activity [3]	inhibition zone (IZ) (Klebsiella pneumoniae) [mm]
54.5	52.9	COc1cc(/C=C/C(=O)c2cccc(NC(=O)c3cc(-c4ccncc4)n[nH]3)c2)cc(OC)c1OC	5.2	11.6	12.6	Active	Active	–
27.6	70	O=C(/C=C/c1cccs1)c1cccc(NC(=O)c2cc(-c3ccncc3)n[nH]2)c1	8.6	13.5	15.4	Active	Active	7.5
38.4	54.6	COc1ccc(/C=C/C(=O)c2cccc(NC(=O)c3cc(-c4ccncc4)n[nH]3)c2)cc1	12.5	10.6	4.5	Active	–	5.2
52.3	60.2	CC(C)c1ccc(/C=C/C(=O)c2cccc(NC(=O)c3cc(-c4ccncc4)n[nH]3)c2)cc1	9.6	9.4	6.8	Active	Active	–
63.9	78.9	O=C(/C=C/c1ccc(Cl)cc1)c1cccc(NC(=O)c2cc(-c3ccncc3)n[nH]2)c1	10.2	15.3	12.3	Active	Active	–
82.1	89.1	NC(=O)c1cc(-c2ccncc2)n[nH]1	4	6	5	Active	–	5
70.9	98.1	O=C(/C=C/c1ccccc1)c1ccccc1 [CHALCONE]	7	6.5	6	Active	–	5
69.4	64.6	Cc1ccc(/C=C/C(=O)c2cccc(NC(=O)c3cc(-c4ccncc4)n[nH]3)c2)cc1	7.8	7.9	5.9	Active	–	–
52.8	64.6	O=C(/C=C/c1ccc([N+](=O)[O-])cc1)c1cccc(NC(=O)c2cc(-c3ccncc3)n[nH]2)c1	10.4	19.3	20.2	Active	–	–
64.5	72.1	O=C(/C=C/c1cccc2ccccc12)c1cccc(NC(=O)c2cc(-c3ccncc3)n[nH]2)c1	6.3	15.4	12.3	Active	Active	–
56	58.7	O=C(/C=C/c1ccc(F)cc1)c1cccc(NC(=O)c2cc(-c3ccncc3)n[nH]2)c1	12.1	–	5.4	Active	–	–
41.7	56.7	COc1ccccc1/C=C/C(=O)c1cccc(NC(=O)c2cc(-c3ccncc3)n[nH]2)c1	8.8	9.7	6.8	Active	–	–
67.1	71.5	O=C(/C=C/c1ccccc1)c1cccc(NC(=O)c2cc(-c3ccncc3)n[nH]2)c1	9.5	13.2	7.5	Active	–	–
35	80.9	O=C(/C=C/c1ccc(Cl)cc1Cl)c1cccc(NC(=O)c2cc(-c3ccncc3)n[nH]2)c1	12.2	15.5	17.5	Active	Active	6.8
41.8	72.3	O=C(/C=C/c1ccco1)c1cccc(NC(=O)c2cc(-c3ccncc3)n[nH]2)c1	5.7	13.2	10.7	Active	Active	5.8
41.9	60.9	CN(C)c1ccc(/C=C/C(=O)c2cccc(NC(=O)c3cc(-c4ccncc4)n[nH]3)c2)cc1	10.5	12.4	7.8	Active	Active	5.9
27.7	79.8	O=C(/C=C/c1ccccc1Cl)c1cccc(NC(=O)c2cc(-c3ccncc3)n[nH]2)c1	8.3	7.4	–	Active	Active	–
